System in one data set: not listed separately
Kind of data set: logP determination by HPLC on reversed-phase column (EEC Directive 79/831 Annex V.A8). It counts as physicochemical. To be noted: pH 2.3. Here is the method: The logP values given in the Preparation Examples and Tables above are determined in accordance with EEC Directive 79/831 Annex V.A8 by HPLC (High Performance Liquid Chromatography) using a reversed-phase column (C 18). Temperature: 43° C.
The determination in the acidic range is carried out at pH 2.3 using the mobile phases 0.1% aqueous phosphoric acid and acetonitrile; linear gradient from 10% acetonitrile to 90% acetonitrile.
Calibration is carried out using unbranched alkan-2-ones (having 3 to 16 carbon atoms) with known logP values (determination of the logP values by the retention times using linear interpolation between two successive alkanones).
`N#Cc1ccc(NC(=O)N2CC(n3cc(C#N)cn3)C(c3ccc(Cl)cc3)=N2)cc1` (stereo not shown) [Example 29]: the “logP (pH 2)/m.p.” value is on record as 3.00.

Consider `N#Cc1cnn(C2CN(C(=O)Nc3ccc([S+]([O-])C(F)(F)F)cc3)N=C2c2ccc(Cl)cc2)c1` (stereo not shown) [Example 12], for which the “logP (pH 2)/m.p.” value stood at 3.28.

As for `NC(=O)c1cnn(C2CN(C(=O)Nc3ccc(S(=O)(=O)C(F)(F)F)cc3)N=C2c2ccc(Cl)cc2)c1` (stereo not shown) [Example 25], the “logP (pH 2)/m.p.” value was found to be 2.94.

Consider `N#Cc1cnn(C2CNN=C2c2ccc(Br)cc2)c1` (stereo not shown) [II-2], for which the “logP (pH 2)” value was 2.20.

Turning to `CNC(=O)c1cnn(C2CN(C(=O)Nc3ccc(SC(F)(F)F)cc3)N=C2c2ccc(Cl)cc2)c1` (stereo not shown) [Example 21], the “logP (pH 2)/m.p.” value is on record as 3.39.

In the case of `N#Cc1cnn(C2CN(C(=O)Nc3ccc(S(=O)(=O)C(F)(F)F)cc3)N=C2c2ccc(Br)cc2)c1` (stereo not shown) [Example 11], the “logP (pH 2)/m.p.” value was determined as 3.88.

Turning to `N#Cc1cnn(C2CN(C(=O)Nc3ccc(OC(F)(F)F)cc3)N=C2c2ccc(I)cc2)c1` (stereo not shown) [Example 13], the “logP (pH 2)/m.p.” value is 4.12.

Turning to `N#Cc1cnn(C2CN(C(=O)Nc3ccc(SC(F)(F)F)cc3)N=C2c2ccc(Br)cc2)c1` (stereo not shown) [Example 10], the “logP (pH 2)/m.p.” value worked out at 4.35.

As to `CN(C)C(=O)c1cnn(C2CN(C(=O)Nc3ccc(S(=O)(=O)C(F)(F)F)cc3)N=C2c2ccc(Cl)cc2)c1` (stereo not shown) [Example 27], the “logP (pH 2)/m.p.” value is on record as 3.27.

For the compound `N#Cc1cnn(C2CN(C(=O)Nc3ccc(C(F)(F)F)cc3)N=C2c2ccc(Cl)cc2)c1` (stereo not shown) [Example 4], the “logP (pH 2)/m.p.” value is listed as 3.86.

Regarding `CN(C)C(=O)c1cnn(C2CN(C(=O)Nc3ccc(SC(F)(F)F)cc3)N=C2c2ccc(Cl)cc2)c1` (stereo not shown) [Example 26], the “logP (pH 2)/m.p.” value is given as 3.27.

For `N#Cc1cnn(C2CN(C(=O)Nc3ccc(SC(F)(F)F)cc3)N=C2c2ccc(SC(F)(F)F)cc2)c1` (stereo not shown) [Example 16], the “logP (pH 2)/m.p.” value is on record as 4.73.

Consider `N#Cc1cnn(C2CN(C(=O)Nc3ccc(OC(F)(F)F)cc3)N=C2c2ccc(Cl)cc2)c1` (stereo not shown) [Example 3], for which the “logP (pH 2)/m.p.” value is on record as 3.91.

Consider `COC(=O)c1cnn(C2CN(C(=O)Nc3ccc(OC(F)(F)F)cc3)N=C2c2ccc(Cl)cc2)c1` (stereo not shown) [Example 17], for which the “logP (pH 2)/m.p.” value amounted to 3.95.

As to `N#CCN(C(=O)N1CC(n2cc(C#N)cn2)C(c2ccc(Cl)cc2)=N1)c1ccc(SC(F)(F)F)cc1` (stereo not shown) [Example 32], the “logP (pH 2)/m.p.” value came to 3.90.

In the case of `COC(=O)N(C(=O)N1CC(n2cc(C#N)cn2)C(c2ccc(Cl)cc2)=N1)c1ccc(OC(F)(F)F)cc1` (stereo not shown) [Example 6], the “logP (pH 2)/m.p.” value turned out to be 3.82.

For `N#Cc1cnn(C2CN(C(=O)Nc3ccc(OC(F)(F)F)cc3)N=C2c2ccc(SC(F)(F)F)cc2)c1` (stereo not shown) [Example 15], the “logP (pH 2)/m.p.” value amounted to 4.39.

As to `N#Cc1cnn(C2CNN=C2c2ccc(I)cc2)c1` (stereo not shown) [II-3], the “logP (pH 2)” value amounted to 2.33.

In the case of `N#CCN(C(=O)N1CC(n2cc(C#N)cn2)C(c2ccc(Br)cc2)=N1)c1ccc(SC(F)(F)F)cc1` (stereo not shown) [Example 34], the “logP (pH 2)/m.p.” value was found to be 3.99.

In the case of `N#Cc1cnn(C2CN(C(=O)Nc3ccc(OC(F)(F)F)cc3)N=C2c2ccc(Br)cc2)c1` (stereo not shown) [Example 9], the “logP (pH 2)/m.p.” value came to 4.00.

Consider `N#CCNc1ccc(SC(F)(F)F)cc1` [XII-2], for which the “logP (pH 2)” value came out at 2.82.

In the case of `COC(=O)c1cnn(C2CNN=C2c2ccc(Cl)cc2)c1` (stereo not shown) [II-5], the “logP (pH 2)” value turned out to be 2.13.

Consider `N#CCN(C(=O)N1CC(n2cc(C#N)cn2)C(c2ccc(Br)cc2)=N1)c1ccc(C(F)(F)F)cc1` (stereo not shown) [Example 35], for which the “logP (pH 2)/m.p.” value was 3.63.

`CNC(=O)c1cnn(C2CNN=C2c2ccc(Cl)cc2)c1` (stereo not shown) [II-7]: the “logP (pH 2)” value came to 1.38.

Regarding `N#CCN(C(=O)N1CC(n2cc(C#N)cn2)C(c2ccc(Br)cc2)=N1)c1ccc(OC(F)(F)F)cc1` (stereo not shown) [Example 33], the “logP (pH 2)/m.p.” value came out at 3.75.

Consider `CCOC(=O)N(C(=O)N1CC(n2cc(C#N)cn2)C(c2ccc(Cl)cc2)=N1)c1ccc(OC(F)(F)F)cc1` (stereo not shown) [Example 7], for which the “logP (pH 2)/m.p.” value turned out to be 4.06.

In the case of `N#Cc1cnn(CC(=O)c2ccc(Br)cc2)c1` [VI-3], the “logP (pH 2)” value came out at 2.31.

`N#Cc1cnn(C2CN(C(=O)Nc3ccc(SC(F)(F)F)cc3)N=C2c2ccc(Cl)cc2)c1` (stereo not shown) [Example 5]: the “logP (pH 2)/m.p.” value is on record as 4.27.

On to `CN(C)C(=O)c1cnn(C2CNN=C2c2ccc(Cl)cc2)c1` (stereo not shown) [II-6], for which the “logP (pH 2)” value is 1.54.

On to `N#CCNc1ccc(C(F)(F)F)cc1` [XII-3], for which the “logP (pH 2)” value is 2.36.

For `N#CCN(C(=O)N1CC(n2cc(C#N)cn2)C(c2ccc(Cl)cc2)=N1)c1ccc(Cl)cc1` (stereo not shown) [Example 31], the “logP (pH 2)/m.p.” value stood at 3.42.

With `N#Cc1cnn(C2CNN=C2c2ccc(SC(F)(F)F)cc2)c1` (stereo not shown) [II-4], the “logP (pH 2)” value was determined as 2.78.

As to `N#Cc1cnn(C2CN(C(=O)Nc3ccc(Br)cc3)N=C2c2ccc(Cl)cc2)c1` (stereo not shown) [Example 28], the “logP (pH 2)/m.p.” value came to 3.73.

On to `CNC(=O)c1cnn(CC(=O)c2ccc(Cl)cc2)c1` [VI-7], for which the “logP (pH 2)” value is on record as 1.44.

In the case of `COC(=O)c1cnn(CC(=O)c2ccc(Cl)cc2)c1` [VI-6], the “logP (pH 2)” value stood at 2.20.

With `CNC(=O)c1cnn(C2CN(C(=O)Nc3ccc(S(=O)(=O)C(F)(F)F)cc3)N=C2c2ccc(Cl)cc2)c1` (stereo not shown) [Example 22], the “logP (pH 2)/m.p.” value is recorded as 3.00.

In the case of `N#Cc1cnn(CC(=O)c2ccc(SC(F)(F)F)cc2)c1` [VI-5], the “logP (pH 2)” value came out at 2.91.

`CNC(=O)c1cnn(C2CN(C(=O)Nc3ccc(OC(F)(F)F)cc3)N=C2c2ccc(Cl)cc2)c1` (stereo not shown) [Example 20]: the “logP (pH 2)/m.p.” value worked out at 3.07.

`NC(=O)c1cnn(CC(=O)c2ccc(Cl)cc2)c1` [VI-8]: the “logP (pH 2)” value is listed as 1.33.

With `CN(C)C(=O)c1cnn(C2CN(C(=O)Nc3ccc(OC(F)(F)F)cc3)N=C2c2ccc(Cl)cc2)c1` (stereo not shown) [Example 19], the “logP (pH 2)/m.p.” value came out at 3.27.

Consider `N#Cc1cnn(C2CN(C(=O)Nc3ccc(C(F)(F)F)cc3)N=C2c2ccc(Br)cc2)c1` (stereo not shown) [Example 37], for which the “logP (pH 2)/m.p.” value is on record as 3.94.

`N#Cc1cnn(C2CN(C(=O)Nc3ccc(S(=O)(=O)C(F)(F)F)cc3)N=C2c2ccc(Cl)cc2)c1` (stereo not shown) [Example 18]: the “logP (pH 2)/m.p.” value is listed as 3.78.

For the compound `NC(=O)c1cnn(C2CN(C(=O)Nc3ccc(OC(F)(F)F)cc3)N=C2c2ccc(Cl)cc2)c1` (stereo not shown) [Example 23], the “logP (pH 2)/m.p.” value was determined as 2.94.

For `NC(=O)c1cnn(C2CNN=C2c2ccc(Cl)cc2)c1` (stereo not shown) [II-8], the “logP (pH 2)” value turned out to be 1.28.

With `N#Cc1cnn(C2CN(C(=O)Nc3ccc(SC(F)(F)F)cc3)N=C2c2ccc(I)cc2)c1` (stereo not shown) [Example 14], the “logP (pH 2)/m.p.” value amounted to 4.48.

Consider `N#CCN(C(=O)N1CC(n2cc(C#N)cn2)C(c2ccc(Cl)cc2)=N1)c1ccc(C(F)(F)F)cc1` (stereo not shown) [Example 36], for which the “logP (pH 2)/m.p.” value was found to be 3.56.

Regarding `N#Cc1cnn(CC(=O)c2ccc(I)cc2)c1` [VI-4], the “logP (pH 2)” value came to 2.47.

In the case of `N#Cc1cnn(C2CN(C(=O)Nc3ccc(I)cc3)N=C2c2ccc(Cl)cc2)c1` (stereo not shown) [Example 30], the “logP (pH 2)/m.p.” value worked out at 3.90.

As to `NC(=O)c1cnn(C2CN(C(=O)Nc3ccc(SC(F)(F)F)cc3)N=C2c2ccc(Cl)cc2)c1` (stereo not shown) [Example 24], the “logP (pH 2)/m.p.” value was found to be 3.24.

The same data set, now with this note: reversed-phase C18 HPLC column; values in the text of the Preparation Examples; HPLC, acidic range pH 2.3, 43° C.; read-out: logP (pH 2).
On to `O=C(O)c1cnn(CC(=O)c2ccc(Cl)cc2)c1` [1-(4-chlorophenacyl)-pyrazole-4-carboxylic acid], for which the chromatographic logP came to 1.67.

As to `N#CCN(C(=O)N1CC(n2cc(C#N)cn2)C(c2ccc(Cl)cc2)=N1)c1ccc(OC(F)(F)F)cc1` (stereo not shown) [Example 2, 3-(4-chlorophenyl)-4-(4-cyanopyrazol-1-yl)-4,5-dihydro-1-pyrazole-(N-cyanomethyl)-4′-trifluoromethoxycarboxanilide], the chromatographic logP was found to be 3.68.

As to `N#Cc1cnn(C2CN(C(=O)Nc3ccc(Cl)cc3)N=C2c2ccc(Cl)cc2)c1` (stereo not shown) [Example 1, 4′-chloro-3-(4-chlorophenyl)-4-(4-cyanopyrazol-1-yl)-4,5-dihydro-1-pyrazolecarboxanilide], the chromatographic logP was found to be 3.64.

On to `N#CCNc1ccc(OC(F)(F)F)cc1` [XII-1, N-cyanomethyl-4-trifluoromethoxyaniline], for which the chromatographic logP turned out to be 2.49.

Turning to `CN(C)C(=O)c1cnn(CC(=O)c2ccc(Cl)cc2)c1` [VI-2, N,N-dimethyl-1-(4-chlorophenacyl)-pyrazole-4-carboxamide], the chromatographic logP came to 1.62.

The test system of the next data set is Lucilia cuprina larvae. Put plainly: Blowfly larvae test/development-inhibitory action. It counts as in vivo. To be noted: 20 ppm; after 48 h. Here is the method:
20 mg of active compound are dissolved in 1 ml of dimethyl sulphoxide. More dilute concentrations are prepared by dilution with distilled water.
About 20 Lucilia cuprina larvae are introduced into a test tube which contains about 1 cm^3 of horsemeat and 0.5 ml of the preparation of active compound to be tested. The activity of the preparation of active compound is determined after 24 and 48 hours. The test tubes are transferred into a beaker whose bottom is covered with sand. After a further 2 days, the test tubes are removed and the pupae are counted.
The activity of the preparation of active compound is assessed using the number of flies that have hatched after 1.5 times the development period of an untreated control. 100% means that none of the flies have hatched; 0% means that all of the flies have hatched normally.
Take `N#Cc1cnn(C2CN(C(=O)Nc3ccc(OC(F)(F)F)cc3)N=C2c2ccc(Br)cc2)c1` (stereo not shown) [drawing 81]: the “activity/kill rate in % after 48 h” value was 100/100%.

In the case of `N#Cc1cnn(C2CN(C(=O)Nc3ccc(OC(F)(F)F)cc3)N=C2c2ccc(I)cc2)c1` (stereo not shown) [drawing 83], the “activity/kill rate in % after 48 h” value is listed as 100/100%.

Staying with this data set, now noted: 20 ppm; after 14 d.
`CCOC(=O)N(C(=O)N1CC(n2cc(C#N)cn2)C(c2ccc(Cl)cc2)=N1)c1ccc(OC(F)(F)F)cc1` (stereo not shown) [drawing 89]: the “activity/kill rate in % after 14 d” value was 100%.

On to `N#Cc1cnn(C2CN(C(=O)Nc3ccc(C(F)(F)F)cc3)N=C2c2ccc(Cl)cc2)c1` (stereo not shown) [drawing 86], for which the “activity/kill rate in % after 14 d” value is recorded as 100/100%.

Staying with this data set, now noted: 100 ppm; after 48 h.
As to `N#Cc1cnn(C2CN(C(=O)Nc3ccc(OC(F)(F)F)cc3)N=C2c2ccc(Br)cc2)c1` (stereo not shown) [drawing 81], the “activity/kill rate in % after 48 h” value is on record as 100/100%.

With `N#Cc1cnn(C2CN(C(=O)Nc3ccc(OC(F)(F)F)cc3)N=C2c2ccc(I)cc2)c1` (stereo not shown) [drawing 83], the “activity/kill rate in % after 48 h” value is 100/100%.

The same data set, now with this note: 100 ppm; after 14 d.
On to `N#Cc1cnn(C2CN(C(=O)Nc3ccc(C(F)(F)F)cc3)N=C2c2ccc(Cl)cc2)c1` (stereo not shown) [drawing 86], for which the “activity/kill rate in % after 14 d” value is recorded as 100/100%.

Values taken from patent US20090143454A1, “Pyrazoline Derivatives and Their Use As Pesticides” (BAYER CROPSCIENCE AG, priority 2001, published 2009).
